Source: article PMC6458995, “MAP4K4 Inhibition Promotes Survival of Human Stem Cell-Derived Cardiomyocytes and Reduces Infarct Size In Vivo” (Cell Stem Cell, 2019)

Key:
Assay in all cases: Dundee kinase panel
[1] = molecular target: T1, CLK2 (Homo sapiens, UniProt P49760); format: biochemical; settings: for remaining activity at 1 µM: read-out: residual activity
T1 construct: lines 1-140) and Reaction Biology
Experimental: (§1) Compounds were screened at 1 μM. For key hits, pIC50 values were then determined by HTRF as above. […] Stability in mouse and human liver microsomes was determined by Cyprotex.

[2] = molecular target: T2, RIPK2 (Homo sapiens, UniProt O43353); format: biochemical; settings: for remaining activity at 1 µM: read-out: residual activity
T2 construct: lines 1-140) and Reaction Biology
Experimental: as §1

[3] = molecular target: T3, MKK2 (Homo sapiens, UniProt P36507); format: biochemical; settings: for remaining activity at 1 µM: read-out: residual activity
T3 construct: lines 1-140) and Reaction Biology
Experimental: as §1

[4] = molecular target: T4, PKA (Homo sapiens, UniProt P17612); format: biochemical; settings: for remaining activity at 1 µM: read-out: residual activity
T4 construct: lines 1-140) and Reaction Biology
Experimental: as §1

[5] = molecular target: T5, p38d MAPK (Homo sapiens, UniProt O15264); format: biochemical; settings: for remaining activity at 1 µM: read-out: residual activity
T5 construct: lines 1-140) and Reaction Biology
T5 sequence (O15264 1-365): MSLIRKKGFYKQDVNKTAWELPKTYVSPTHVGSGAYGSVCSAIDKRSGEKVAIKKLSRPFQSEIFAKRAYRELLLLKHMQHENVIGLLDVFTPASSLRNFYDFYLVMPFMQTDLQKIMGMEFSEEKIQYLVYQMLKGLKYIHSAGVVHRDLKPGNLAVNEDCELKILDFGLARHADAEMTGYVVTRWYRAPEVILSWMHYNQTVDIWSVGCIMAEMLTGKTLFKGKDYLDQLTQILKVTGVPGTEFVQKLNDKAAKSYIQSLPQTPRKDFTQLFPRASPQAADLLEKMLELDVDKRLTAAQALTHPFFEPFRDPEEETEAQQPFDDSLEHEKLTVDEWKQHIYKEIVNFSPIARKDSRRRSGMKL
Experimental: as §1

[6] = molecular target: T6, EPH-A2 (Homo sapiens, UniProt P29317); format: biochemical; settings: for remaining activity at 1 µM: read-out: residual activity
T6 construct: lines 1-140) and Reaction Biology
Experimental: as §1

[7] = molecular target: T7, CK2 (Homo sapiens, UniProt P68400); format: biochemical; settings: for remaining activity at 1 µM: read-out: residual activity
T7 construct: lines 1-140) and Reaction Biology
Experimental: as §1

[8] = molecular target: T8, S6K1 (Homo sapiens, UniProt P23443); format: biochemical; settings: for remaining activity at 1 µM: read-out: residual activity
T8 construct: lines 1-140) and Reaction Biology
Experimental: as §1

[9] = molecular target: T9, MKK6 (Homo sapiens, UniProt P52564); format: biochemical; settings: for remaining activity at 1 µM: read-out: residual activity
T9 construct: lines 1-140) and Reaction Biology
T9 sequence (P52564 1-334): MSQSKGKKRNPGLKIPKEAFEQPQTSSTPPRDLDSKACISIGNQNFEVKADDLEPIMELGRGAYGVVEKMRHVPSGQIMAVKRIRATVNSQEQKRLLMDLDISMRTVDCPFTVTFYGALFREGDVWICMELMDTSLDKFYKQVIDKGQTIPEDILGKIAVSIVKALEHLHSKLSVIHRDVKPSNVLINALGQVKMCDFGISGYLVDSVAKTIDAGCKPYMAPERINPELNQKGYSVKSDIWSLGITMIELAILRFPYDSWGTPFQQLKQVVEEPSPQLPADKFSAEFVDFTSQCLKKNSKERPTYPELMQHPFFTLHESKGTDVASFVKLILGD
Experimental: as §1

[10] = molecular target: T10, MARK3 (Homo sapiens, UniProt P27448); format: biochemical; settings: for remaining activity at 1 µM: read-out: residual activity
T10 construct: lines 1-140) and Reaction Biology
Experimental: as §1

[11] = molecular target: T11, DDR2 (Homo sapiens, UniProt Q16832); format: biochemical; settings: for remaining activity at 1 µM: read-out: residual activity
T11 construct: lines 1-140) and Reaction Biology
T11 sequence (Q16832 22-855): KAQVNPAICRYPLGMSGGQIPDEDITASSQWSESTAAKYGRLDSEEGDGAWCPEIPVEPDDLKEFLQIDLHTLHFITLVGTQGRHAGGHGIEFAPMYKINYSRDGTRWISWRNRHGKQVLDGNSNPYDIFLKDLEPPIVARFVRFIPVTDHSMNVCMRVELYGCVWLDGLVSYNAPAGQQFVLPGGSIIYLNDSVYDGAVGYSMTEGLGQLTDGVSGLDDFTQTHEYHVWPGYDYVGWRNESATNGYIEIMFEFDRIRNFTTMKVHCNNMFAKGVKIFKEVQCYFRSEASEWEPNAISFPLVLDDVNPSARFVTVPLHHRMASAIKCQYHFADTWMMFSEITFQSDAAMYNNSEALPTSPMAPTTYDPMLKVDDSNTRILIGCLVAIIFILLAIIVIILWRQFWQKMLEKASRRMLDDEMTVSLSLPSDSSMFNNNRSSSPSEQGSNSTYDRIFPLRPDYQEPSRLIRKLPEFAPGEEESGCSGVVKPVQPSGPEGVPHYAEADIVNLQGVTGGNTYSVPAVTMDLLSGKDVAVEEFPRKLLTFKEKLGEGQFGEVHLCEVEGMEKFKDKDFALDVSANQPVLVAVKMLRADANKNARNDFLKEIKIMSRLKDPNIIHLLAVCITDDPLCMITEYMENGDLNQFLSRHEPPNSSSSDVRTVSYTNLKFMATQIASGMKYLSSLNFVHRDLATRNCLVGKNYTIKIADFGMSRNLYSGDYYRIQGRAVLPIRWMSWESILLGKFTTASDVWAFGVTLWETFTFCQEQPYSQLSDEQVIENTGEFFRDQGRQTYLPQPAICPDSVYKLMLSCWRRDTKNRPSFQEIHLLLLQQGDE
Experimental: as §1

[12] = molecular target: T12, RSK2 (Homo sapiens, UniProt P51812); format: biochemical; settings: for remaining activity at 1 µM: read-out: residual activity
T12 construct: lines 1-140) and Reaction Biology
Experimental: as §1

[13] = tested on: PINK; format: biochemical, human; settings: 1 μM
Experimental: Kinase selectivity profiling was performed by the International Centre for Kinase Profiling, MRC Protein Phosphorylation and Ubiquitylation Unit (141 kinases; Premier Screen, http://www.kinase-screen.mrc.ac.uk), using a [γ-^33P]ATP filter binding assay ([Bain et al., 2007]). Compounds were screened at 1 μM. For key hits, pIC50 values were then determined by HTRF as above. More complete kinome profiling was performed by Reaction Biology (376 kinases). Stability in mouse and human liver microsomes was determined by Cyprotex.

T7 sequence (P68400 whole entry): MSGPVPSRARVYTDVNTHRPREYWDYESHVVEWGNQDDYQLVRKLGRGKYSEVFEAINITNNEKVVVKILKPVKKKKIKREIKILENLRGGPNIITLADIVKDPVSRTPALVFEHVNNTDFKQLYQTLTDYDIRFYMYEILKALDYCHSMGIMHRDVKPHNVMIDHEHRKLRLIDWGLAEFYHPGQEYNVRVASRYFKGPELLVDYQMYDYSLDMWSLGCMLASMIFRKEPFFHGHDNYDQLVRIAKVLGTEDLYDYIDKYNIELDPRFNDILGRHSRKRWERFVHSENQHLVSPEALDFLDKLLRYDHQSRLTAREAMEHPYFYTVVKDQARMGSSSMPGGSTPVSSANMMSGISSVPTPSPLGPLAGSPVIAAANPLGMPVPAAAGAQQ
T8 sequence (P23443 whole entry): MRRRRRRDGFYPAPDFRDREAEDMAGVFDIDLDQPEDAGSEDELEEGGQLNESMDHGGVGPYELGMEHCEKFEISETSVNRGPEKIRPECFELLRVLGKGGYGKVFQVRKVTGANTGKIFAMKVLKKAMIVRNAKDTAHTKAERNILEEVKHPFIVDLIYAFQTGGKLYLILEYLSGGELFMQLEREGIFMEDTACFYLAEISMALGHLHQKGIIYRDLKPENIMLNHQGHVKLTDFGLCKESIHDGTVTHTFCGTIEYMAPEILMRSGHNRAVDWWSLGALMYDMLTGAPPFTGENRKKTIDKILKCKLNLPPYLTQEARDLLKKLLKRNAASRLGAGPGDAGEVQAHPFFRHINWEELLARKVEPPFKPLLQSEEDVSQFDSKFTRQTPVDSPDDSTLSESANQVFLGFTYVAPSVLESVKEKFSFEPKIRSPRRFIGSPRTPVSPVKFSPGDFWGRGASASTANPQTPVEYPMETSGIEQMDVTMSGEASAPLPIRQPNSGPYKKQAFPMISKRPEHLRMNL
T12 sequence (P51812 whole entry): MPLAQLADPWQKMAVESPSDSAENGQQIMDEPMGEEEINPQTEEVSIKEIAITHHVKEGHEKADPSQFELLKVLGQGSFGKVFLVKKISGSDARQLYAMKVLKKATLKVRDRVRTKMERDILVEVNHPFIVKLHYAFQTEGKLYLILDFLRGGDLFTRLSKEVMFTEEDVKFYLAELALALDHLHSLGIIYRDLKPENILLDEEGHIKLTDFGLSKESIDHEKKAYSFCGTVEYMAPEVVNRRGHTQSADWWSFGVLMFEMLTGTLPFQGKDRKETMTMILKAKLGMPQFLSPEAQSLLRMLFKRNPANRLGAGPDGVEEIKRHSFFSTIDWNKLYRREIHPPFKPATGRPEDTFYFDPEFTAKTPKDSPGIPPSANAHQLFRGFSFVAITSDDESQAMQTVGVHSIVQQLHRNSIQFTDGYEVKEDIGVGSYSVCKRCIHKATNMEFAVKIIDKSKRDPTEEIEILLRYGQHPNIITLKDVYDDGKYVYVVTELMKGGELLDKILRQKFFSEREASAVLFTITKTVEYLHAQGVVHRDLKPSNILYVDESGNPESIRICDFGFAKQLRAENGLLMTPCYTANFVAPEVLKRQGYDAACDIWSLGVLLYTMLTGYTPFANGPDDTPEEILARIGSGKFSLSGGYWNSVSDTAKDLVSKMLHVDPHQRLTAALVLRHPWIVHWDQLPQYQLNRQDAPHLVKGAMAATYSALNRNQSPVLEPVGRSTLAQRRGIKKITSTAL
T10 sequence (P27448 whole entry): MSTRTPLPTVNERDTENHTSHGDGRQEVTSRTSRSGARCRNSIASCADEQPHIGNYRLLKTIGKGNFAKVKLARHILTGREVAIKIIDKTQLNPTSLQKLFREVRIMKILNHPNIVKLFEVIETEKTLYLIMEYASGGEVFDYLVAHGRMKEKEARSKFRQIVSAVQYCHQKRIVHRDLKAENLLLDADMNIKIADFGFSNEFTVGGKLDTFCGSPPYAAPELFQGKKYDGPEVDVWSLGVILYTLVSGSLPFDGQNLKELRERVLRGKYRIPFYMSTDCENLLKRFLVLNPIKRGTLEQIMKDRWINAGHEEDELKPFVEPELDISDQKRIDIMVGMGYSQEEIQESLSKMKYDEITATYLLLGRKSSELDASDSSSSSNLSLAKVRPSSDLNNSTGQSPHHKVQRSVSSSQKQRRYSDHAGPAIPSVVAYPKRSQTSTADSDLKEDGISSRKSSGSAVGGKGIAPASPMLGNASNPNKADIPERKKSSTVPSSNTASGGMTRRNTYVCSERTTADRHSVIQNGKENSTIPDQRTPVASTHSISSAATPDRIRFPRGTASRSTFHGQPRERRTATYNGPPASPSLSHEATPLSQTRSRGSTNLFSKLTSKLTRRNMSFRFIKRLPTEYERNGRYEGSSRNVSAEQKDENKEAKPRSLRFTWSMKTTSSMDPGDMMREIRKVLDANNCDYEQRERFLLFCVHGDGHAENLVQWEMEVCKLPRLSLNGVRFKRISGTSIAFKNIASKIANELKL
T3 sequence (P36507 whole entry): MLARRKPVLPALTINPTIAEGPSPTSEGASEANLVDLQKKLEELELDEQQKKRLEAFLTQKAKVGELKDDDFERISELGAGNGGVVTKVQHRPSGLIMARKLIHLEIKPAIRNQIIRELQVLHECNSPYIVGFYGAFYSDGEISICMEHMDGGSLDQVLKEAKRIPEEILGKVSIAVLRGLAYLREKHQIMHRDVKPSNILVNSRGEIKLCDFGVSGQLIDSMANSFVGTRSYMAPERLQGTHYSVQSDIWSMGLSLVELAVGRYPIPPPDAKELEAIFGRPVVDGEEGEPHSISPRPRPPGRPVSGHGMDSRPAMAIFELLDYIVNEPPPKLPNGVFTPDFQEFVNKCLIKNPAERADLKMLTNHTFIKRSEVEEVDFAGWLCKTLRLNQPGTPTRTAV
T1 sequence (P49760 whole entry): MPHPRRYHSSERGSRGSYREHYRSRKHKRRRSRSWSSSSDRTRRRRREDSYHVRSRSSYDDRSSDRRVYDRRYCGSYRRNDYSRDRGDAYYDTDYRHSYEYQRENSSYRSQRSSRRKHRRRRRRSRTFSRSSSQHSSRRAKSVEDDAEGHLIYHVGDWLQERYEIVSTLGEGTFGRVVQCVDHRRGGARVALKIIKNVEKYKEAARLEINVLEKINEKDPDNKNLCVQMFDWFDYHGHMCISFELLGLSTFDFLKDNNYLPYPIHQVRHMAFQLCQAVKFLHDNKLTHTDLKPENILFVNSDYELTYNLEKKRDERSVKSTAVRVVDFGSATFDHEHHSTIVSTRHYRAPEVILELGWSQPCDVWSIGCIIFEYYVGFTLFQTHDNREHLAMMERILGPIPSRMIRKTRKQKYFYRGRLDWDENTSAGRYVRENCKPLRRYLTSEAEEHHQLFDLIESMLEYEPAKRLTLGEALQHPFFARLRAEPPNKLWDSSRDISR
T2 sequence (O43353 whole entry): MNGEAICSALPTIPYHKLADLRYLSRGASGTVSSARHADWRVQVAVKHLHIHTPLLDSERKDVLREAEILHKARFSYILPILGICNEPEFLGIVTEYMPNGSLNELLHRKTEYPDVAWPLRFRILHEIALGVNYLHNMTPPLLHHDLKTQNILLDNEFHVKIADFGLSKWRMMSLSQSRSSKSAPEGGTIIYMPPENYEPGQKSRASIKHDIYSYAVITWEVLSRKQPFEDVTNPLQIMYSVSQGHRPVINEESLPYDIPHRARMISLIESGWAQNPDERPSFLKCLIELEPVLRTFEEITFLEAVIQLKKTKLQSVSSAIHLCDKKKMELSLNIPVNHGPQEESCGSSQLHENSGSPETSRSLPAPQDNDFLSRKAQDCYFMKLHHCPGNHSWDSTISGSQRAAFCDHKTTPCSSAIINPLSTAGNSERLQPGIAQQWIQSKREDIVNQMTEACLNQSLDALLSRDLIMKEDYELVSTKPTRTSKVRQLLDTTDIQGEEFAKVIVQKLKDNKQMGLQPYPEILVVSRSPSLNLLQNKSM
T6 sequence (P29317 24-976): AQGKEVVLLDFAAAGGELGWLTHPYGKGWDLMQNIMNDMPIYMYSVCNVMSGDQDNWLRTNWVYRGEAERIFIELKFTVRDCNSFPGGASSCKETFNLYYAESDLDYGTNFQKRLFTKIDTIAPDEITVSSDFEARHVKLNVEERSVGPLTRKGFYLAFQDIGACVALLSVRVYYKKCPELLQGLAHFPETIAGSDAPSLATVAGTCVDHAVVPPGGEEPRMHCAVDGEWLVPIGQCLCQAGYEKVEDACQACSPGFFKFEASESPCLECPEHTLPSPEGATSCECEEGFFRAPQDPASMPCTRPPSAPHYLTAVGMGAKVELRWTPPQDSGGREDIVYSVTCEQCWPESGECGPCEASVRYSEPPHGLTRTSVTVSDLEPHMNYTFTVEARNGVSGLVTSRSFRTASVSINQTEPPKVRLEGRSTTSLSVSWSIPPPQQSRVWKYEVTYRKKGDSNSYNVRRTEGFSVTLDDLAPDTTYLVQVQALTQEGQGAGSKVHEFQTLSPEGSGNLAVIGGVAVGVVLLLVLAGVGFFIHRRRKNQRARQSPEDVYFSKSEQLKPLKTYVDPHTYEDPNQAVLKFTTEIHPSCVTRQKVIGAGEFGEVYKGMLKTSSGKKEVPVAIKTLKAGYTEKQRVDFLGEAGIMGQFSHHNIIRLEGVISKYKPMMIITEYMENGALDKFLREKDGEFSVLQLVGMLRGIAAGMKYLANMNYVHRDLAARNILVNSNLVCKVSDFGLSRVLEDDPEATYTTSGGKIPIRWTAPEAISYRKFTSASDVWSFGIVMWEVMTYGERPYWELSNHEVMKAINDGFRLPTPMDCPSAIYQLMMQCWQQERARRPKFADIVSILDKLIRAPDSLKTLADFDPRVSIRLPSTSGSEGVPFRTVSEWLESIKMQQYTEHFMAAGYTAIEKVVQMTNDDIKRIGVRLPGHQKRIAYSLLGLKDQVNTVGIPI

In the case of `O=C1Cc2c([nH]c3ccc(Br)cc23)-c2ccccc2N1` [Kenpaullone], the remaining activity at 1 µM [1] is reported as 109%, the remaining activity at 1 µM [2] is reported as 60% and the remaining activity at 1 µM [3] is reported as 91%. It also gave a remaining activity at 1 µM [4] of 105%, a remaining activity at 1 µM [5] of 91% and a remaining activity at 1 µM [6] of 103%. It also gave a remaining activity at 1 µM [7] of 90%, a remaining activity at 1 µM [8] of 97% and a remaining activity at 1 µM [9] of 102%. The remaining activity at 1 µM [10] was 62% and the remaining activity at 1 µM [11] was 88%.

`O=C1Nc2ccc(I)cc2/C1=C/c1cc(Br)c(O)c(Br)c1` [GW5074] showed a remaining activity at 1 µM [12] of 49%, a remaining activity at 1 µM [1] of 53% and a remaining activity at 1 µM [2] of 51%. It also gave a remaining activity at 1 µM [3] of 79%, a remaining activity at 1 µM [4] of 83% and a remaining activity at 1 µM [5] of 82%. The remaining activity at 1 µM [6] was 63%, the remaining activity at 1 µM [7] was 72% and the remaining activity at 1 µM [8] was 87%. For the same compound, the remaining activity at 1 µM [9] was 81%, the remaining activity at 1 µM [10] was 72% and the remaining activity at 1 µM [11] was 62%.

`Nc1ncc(C(=O)NC2CN(C(=O)C3CC3)C2)c2ccc(-c3cccc(F)c3)nc12` [GNE-495] gave a residual activity ([12]; 1 μM) of 62%, a residual activity ([1]; 1 μM) of 87% and a residual activity ([2]; 1 μM) of 11%. For the same compound, the residual activity ([3]; 1 μM) was 75%, the residual activity ([4]; 1 μM) was 95% and the residual activity ([5]; 1 μM) was 110%. It also gave a residual activity ([6]; 1 μM) of 112%, a residual activity ([7]; 1 μM) of 93% and a residual activity ([8]; 1 μM) of 43%. It also gave a residual activity ([9]; 1 μM) of 97%, a residual activity ([10]; 1 μM) of 46% and a residual activity ([11]; 1 μM) of 109%. The residual activity [13] was 104%.

`Oc1ncnc2c1c(-c1ccccc1)cn2-c1ccccc1` [F1386-0303, 5,7-diphenyl-7H-pyrrolo[2,3-d]pyrimidin-4-ol] was tested, and the remaining activity at 1 µM [12] was 114%, the remaining activity at 1 µM [1] was 94% and the remaining activity at 1 µM [2] was 105%. For the same compound, the remaining activity at 1 µM [3] was 102%, the remaining activity at 1 µM [4] was 103% and the remaining activity at 1 µM [5] was 114%. It also gave a remaining activity at 1 µM [6] of 97%, a remaining activity at 1 µM [7] of 77% and a remaining activity at 1 µM [8] of 105%. The remaining activity at 1 µM [9] was 105%, the remaining activity at 1 µM [10] was 111% and the remaining activity at 1 µM [11] was 88%. The residual activity [13] was 104%.

Work on `COCCOc1ccc(-c2cn(-c3ccccc3)c3nc[nH]c(=O)c23)cc1` [DMX-5804, 5-[4-(2-methoxy-ethoxy)-phenyl]-7-phenyl-3,7-dihydro-pyrrolo[2,3-d]pyrimidin-4-one] yielded a remaining activity at 1 µM [12] of 93%, a remaining activity at 1 µM [1] of 73% and a remaining activity at 1 µM [2] of 89%. The remaining activity at 1 µM [3] was 98%, the remaining activity at 1 µM [4] was 109% and the remaining activity at 1 µM [5] was 107%. For the same compound, the remaining activity at 1 µM [6] was 94%, the remaining activity at 1 µM [7] was 104% and the remaining activity at 1 µM [8] was 121%. It also gave a remaining activity at 1 µM [9] of 112%, a remaining activity at 1 µM [10] of 88% and a remaining activity at 1 µM [11] of 80%. The residual activity [13] was 108%.
